Values after ≈ are worked out from the molar mass of the structure shown.
Tests used:
[1] = Cytotoxicity against Chlorocebus aethiops (African green monkey) Vero cells assessed as alteration in cell morphology by microscopy; format: cell-based; details: chlorocebus sabaeus
Punta Toro virus = experiment: Antiviral activity against Punta Toro virus infected Vero cells assessed as inhibition of virus-induced cytopathicity; format: functional, organism-based
Coxsackievirus B4 [2] = experiment: Antiviral activity against Human coxsackievirus B4 infected Vero cells assessed as inhibition of virus-induced cytopathicity; format: functional, organism-based; details: Enterovirus B
Sindbis virus = experiment: Antiviral activity against Sindbis virus infected Vero cells assessed as inhibition of virus-induced cytopathicity; format: functional, organism-based
[3] = system: Mammalian orthoreovirus 1; experiment: Antiviral activity against Mammalian orthoreovirus 1 infected Vero cells assessed as inhibition of virus-induced cytopathicity by microscopy; format: functional, organism-based; details: Mammalian orthoreovirus 1, Vero
Human respirovirus 3 = experiment: Antiviral activity against Human parainfluenza virus 3 infected Vero cells assessed as inhibition of virus-induced cytopathicity by microscopy; format: functional, organism-based; details: Human respirovirus 3, Vero
[4] = Cytotoxicity against Homo sapiens (human) HeLa cells assessed as alteration in cell morphology by microscopy; format: cell-based
[5] = system: Respiratory syncytial virus; experiment: Antiviral activity against Respiratory syncytial virus infected human HeLa cells assessed as inhibition of virus-induced cytopathicity by microscopy; format: functional, organism-based
Coxsackievirus B4 [6] = experiment: Antiviral activity against Human coxsackievirus B4 infected human HeLa cells assessed as inhibition of virus-induced cytopathicity by microscopy; format: functional, organism-based; details: Enterovirus B
[7] = system: Vesicular stomatitis virus; experiment: Antiviral activity against Vesicular stomatitis virus infected human HeLa cells assessed as inhibition of virus-induced cytopathicity by microscopy; format: functional, organism-based
[8] = Cytotoxicity against Homo sapiens (human) HEL cells assessed as alteration in cell morphology by microscopy; format: cell-based
[9] = system: Human herpesvirus 3 strain Oka vaccine; experiment: Antiviral activity against Human herpesvirus 3 strain Oka vaccine OKA 07-1 (Varicella zoster virus) infected in human HEL cells assessed as inhibition of virus-induced cytopathicity; format: functional, organism-based; details: Human alphaherpesvirus 3, OKA 07-1, HEL
[10] = system: Human herpesvirus 5 strain AD169; experiment: Antiviral activity against Human herpesvirus 5 strain AD169 Davis infected human HEL cells assessed as inhibition of virus-induced cytopathicity by microscopy; format: functional, organism-based; details: Human betaherpesvirus 5, Davis
Human alphaherpesvirus 1 [11] = experiment: Antiviral activity against TK(-) aciclovir-resistant Human herpesvirus 1 strain KOS infected in human HEL cells assessed as inhibition of virus-induced cytopathicity; format: functional, organism-based; details: Human alphaherpesvirus 1, KOS
Human alphaherpesvirus 2 = experiment: Antiviral activity against Human herpesvirus 2 strain G infected human HEL cells assessed as inhibition of virus-induced cytopathicity by microscopy; format: functional, organism-based; details: Human alphaherpesvirus 2, strain G
Vaccinia virus = experiment: Antiviral activity against Vaccinia virus infected human HEL cells assessed as inhibition of virus-induced cytopathicity by microscopy; format: functional, organism-based; details: Orthopoxvirus vaccinia
[12] = Cytotoxicity against Homo sapiens (human) MT4 cells after 4 days by MTT assay; format: cell-based
Human alphaherpesvirus 1 [13] = experiment: Antiviral activity against Human herpesvirus 1 strain KOS infected in human HEL cells assessed as inhibition of virus-induced cytopathicity by microscopy by microscopy; format: functional, organism-based; details: Human alphaherpesvirus 1, KOS
[14] = system: Human immunodeficiency virus 2; experiment: Antiviral activity against Human immunodeficiency virus type 2 (ISOLATE ROD) infected MT4 cells assessed as inhibition of virus-induced cytopathic effect after 4 days by MTT assay; format: functional, organism-based; details: Human immunodeficiency virus 2, ISOLATE ROD, MT4, 96 h
[15] = system: Human immunodeficiency virus 1; experiment: Antiviral activity against Human immunodeficiency virus 1 IIIB infected MT4 cells assessed as inhibition of virus-induced cytopathic effect after 4 days by MTT assay; format: functional, organism-based; details: MT4, 96 h
Candida albicans [16] = experiment: Antimicrobial activity against Candida albicans after 2 days by serial dilution method; format: functional; design: unit not given here
Candida albicans [17] = experiment: Antimicrobial activity against Candida albicans after 7 days by serial dilution method; format: functional; design: unit not given here
Escherichia coli = experiment: Antimicrobial activity against Escherichia coli after 24 hr by serial dilution method; format: functional; design: unit not given here
Staphylococcus aureus = experiment: Antimicrobial activity against Staphylococcus aureus after 24 hr by serial dilution method; format: functional; design: unit not given here
Bacillus subtilis = experiment: Antimicrobial activity against Bacillus subtilis after 24 hr by serial dilution method; format: functional; design: unit not given here
[18] = system: Mycobacterium tuberculosis; experiment: Antimicrobial activity against Mycobacterium tuberculosis by agar dilution method; format: functional

SMILES | MCC [1] [µg/mL] | EC50 (Punta Toro virus) [µg/mL] | EC50 (Coxsackievirus B4 [2]) [µg/mL] | EC50 (Sindbis virus) [µg/mL] | EC50 [3] [µg/mL] | EC50 (Human respirovirus 3) [µg/mL] | MCC [4] [µg/mL] | EC50 [5] [µg/mL] | EC50 (Coxsackievirus B4 [6]) [µg/mL] | EC50 [7] [µg/mL] | CC50 [8] [µg/mL] | MCC [8] [µg/mL] | EC50 [9] [µg/mL] | EC50 [10] [µg/mL] | EC50 (Human alphaherpesvirus 1 [11]) [µg/mL] | EC50 (Human alphaherpesvirus 2) [µg/mL] | EC50 (Vaccinia virus) [µg/mL] | CC50 at 96 h [12] [µg/mL] | EC50 (Human alphaherpesvirus 1 [13]) [µg/mL] | EC50 [14] [µg/mL] | other results
COc1ccc(/C=N/NC(=O)c2cccnc2)cc1 | > 100 | > 100 | > 100 | > 100 | > 100 | > 100 | > 100 | > 100 | > 100 | > 100 | > 100 | > 100 | > 100 | > 100 | > 100 | > 100 | > 100 | 99 (≈ 388 µM) | > 100 | > 99 | EC50 [15]: > 99 µg/mL; -logMIC (Candida albicans [16]): 1.31; -logMIC (Candida albicans [17]): 1.61; -logMIC (Escherichia coli): 1.31; -logMIC (Staphylococcus aureus): 1.31; -logMIC (Bacillus subtilis): 1.31; MIC [18]: > 25 µg/mL
O=C(N/N=C/c1ccccc1[N+](=O)[O-])c1cccnc1 | > 100 | > 100 | > 100 | > 100 | > 100 | > 100 | > 100 | > 100 | > 100 | > 100 | 46 (≈ 170 µM) | > 100 | > 100 | > 100 | > 100 | > 100 | > 100 | 68 (≈ 252 µM) | > 100 | > 68 | EC50 [15]: > 68 µg/mL; -logMIC (Candida albicans [16]): 1.33; -logMIC (Candida albicans [17]): 1.94; -logMIC (Escherichia coli): 1.33; -logMIC (Staphylococcus aureus): 1.33; -logMIC (Bacillus subtilis): 1.94; MIC [18]: > 25 µg/mL
O=C(N/N=C/c1cccc([N+](=O)[O-])c1)c1cccnc1 | ≥ 100 | > 100 | > 100 | > 100 | > 100 | > 100 | 20 | > 4 | > 4 | > 4 | 13 (≈ 48.1 µM) | > 100 | > 100 | > 20 | > 100 | > 100 | > 100 | 54 (≈ 200 µM) | > 100 | > 54 | EC50 [15]: > 54 µg/mL; -logMIC (Candida albicans [16]): 1.33; -logMIC (Candida albicans [17]): 1.64; -logMIC (Escherichia coli): 1.94; -logMIC (Staphylococcus aureus): 1.33; -logMIC (Bacillus subtilis): 1.64; MIC [18]: > 25 µg/mL
O=C(N/N=C/c1ccc([N+](=O)[O-])cc1)c1cccnc1 | ≥ 0.8 | > 0.8 | > 0.8 | > 0.8 | > 0.8 | > 0.8 | 0.8 | > 0.16 | > 0.16 | > 0.16 | < 0.16 | ≥ 0.8 | > 0.16 | > 0.16 | > 0.8 | > 0.8 | > 0.8 | 0.1 (≈ 0.37 µM) | > 0.8 | > 0.1 | EC50 [15]: > 0.1 µg/mL; -logMIC (Candida albicans [16]): 1.33; -logMIC (Candida albicans [17]): 1.33; -logMIC (Escherichia coli): 1.94; -logMIC (Staphylococcus aureus): 1.03; -logMIC (Bacillus subtilis): 1.33; MIC [18]: > 25 µg/mL
